From patent US6153592A, “Enhancing the bioavailability of proteolytically labile therapeutic agents” (Port Systems, LLC, priority 1994, dated 2000)

Experiments:
[1] = in vivo, cited from earlier work
[2] = system: intestinal aminopeptidases; experiment: Protection against degradation by aminopeptidase in vivo: YdAGFdL bioavailability after ileal dosing; set-up: species or system rats
Experimental: The pentapeptide enkephalin analogue D-AJa-D-Leu-enkephalin (YdAGFdL) (1.0 mg) was directly ileally dosed to chronically ileally fistulated rats. Radiolabeled YdAGFdL (1.12 microgram) was dosed with each of four protecting agents: (1) decanted soy flour, <1K MW; (2) decanted and ultrafitered soy flour, 1K-30K MW; (3) pepsin-treated (FMC ACTI-MOD) soy flour, <30K MW; (4) the potent aminopeptidase inhibitor amastatin (positive control). Blood was collected from a jugular vein cannula at various times post-dosing, and intact YdAGFdL was quantified by a radiometric thin layer chromatography (TLC) method utilizing reverse phase KC-18 TLC plates (Whatman Co.). The TLC plates were developed with 30:701 -propanol/0.1 M phosphate buffer (pH 4.1).

Row | % YdAGFdL Bioavailability ([2]; protecting agent 1 mg, ileally fistulated rats) | protection against degradation of YdAGFdL by intestinal aminopeptidases (in words) ([2]; rats) | Compound | bioavailability following oral administration ([1]; po) | bioavailability following vaginal administration [1]
1 | – | – | CCNC(=O)[C@@H]1CCCN1C(=O)[C@H](CCCNC(=N)N)NC(=O)[C@H](CC(C)C)NC(=O)[C@@H](CC(C)C)NC(=O)[C@H](Cc1ccc(O)cc1)NC(=O)[C@H](CO)NC(=O)[C@H](Cc1c[nH]c2ccccc12)NC(=O)[C@H](Cc1c[nH]cn1)NC(=O)[C@@H]1CCC(=O)N1 [leuprolide] | 0.05% | 38%
2 | 8.76 ± 4.47% | effective | CC(C)C[C@@H](N)[C@H](O)C(=O)N[C@H](C(=O)N[C@H](C(=O)N[C@@H](CC(=O)O)C(=O)O)C(C)C)C(C)C [Amastatin] | – | –
